# Results taken from patent US20150274661A1, “INDOL-AMIDE COMPOUNDS AS BETA-AMYLOID INHBITORS” (Hoffmann-La Roche Inc., priority 2012, published 2015).
# Test system: Aβ42 secretion
# Assay: Cellular γ-secretase assay (inhibition of Aβ42 secretion)
# Format: cell-based
# Details: Homo sapiens, 22 h, human neuroglioma H4 cells overexpressing human APP, 22 hours incubation
# Method in brief: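 H4 neuroglioma cells overexpressing human APP were exposed to compounds (ten-point dilution series, 0.4% DMSO) for 22 h at 37°C. Secreted Aβ42 in supernatant measured by electrochemiluminescence sandwich immunoassay (ruthenylated BAP15 detection, biotinylated 6E10 capture on streptavidin beads). IC50 by nonlinear regression.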
row,SMILES,EC50 [nM]
1,"O=C(Nc1ccc(F)c(F)c1)c1cc2cc(C(O)CN3CCCCC3)ccc2[nH]1 (stereo not shown) [Example 100, 5-(1-Hydroxy-2-piperidin-1-yl-ethyl)-1H-indole-2-carboxylic acid (3,4-difluoro-phenyl)-amide]",2610
2,"O=C(Nc1ccc(F)cc1)c1cc2cc(C3CCN(CCc4ccccc4)CC3)ccc2[nH]1 [Example 45, 5-(1-Phenethyl-piperidin-4-yl)-1H-indole-2-carboxylic acid (4-fluoro-phenyl)-amide]",12900
3,"C=CCN1CCC(c2ccc3[nH]c(C(=O)Nc4ccc(F)cc4)cc3c2)CC1 [Example 39, 5-[1-Allyl-piperidin-4-yl]-1H-indole-2-carboxylic acid (4-fluoro-phenyl)-amide]",1320
4,"CC(C)N1CCC[C@H](c2ccc3[nH]c(C(=O)Nc4cccc(F)c4)cc3c2)C1 [Example 110, 5-((R)-1-Isopropyl-piperidin-3-yl)-1H-indole-2-carboxylic acid (3-fluoro-phenyl)-amide]",116
5,"CN1CCCC(c2ccc3[nH]c(C(=O)Nc4cc(F)cc(F)c4)cc3c2)C1 (stereo not shown) [Example 59, 5-(1-Methyl-piperidin-3-yl)-1H-indole-2-carboxylic acid (3,5-difluoro-phenyl)-amide]",183
6,"CC(c1ccc2[nH]c(C(=O)Nc3cc(F)cc(F)c3)cc2c1)N1CCCCC1=O (stereo not shown) [Example 89, 5-[1-(2-Oxo-piperidin-1-yl)-ethyl]-1H-indole-2-carboxylic acid (3,5-difluoro-phenyl)-amide]",4400
7,"CC(C)N1CCCC(c2ccc3[nH]c(C(=O)Nc4cc(F)cc(F)c4)cc3c2)C1 (stereo not shown) [Example 21, 5-(1-Isopropyl-piperidin-3-yl)-1H-indole-2-carboxylic acid (3,5-difluoro-phenyl)-amide]",177
8,"CC(C)N1CCC(c2ccc3[nH]c(C(=O)Nc4cc(F)cc(F)c4)cc3c2)C1 (stereo not shown) [Example 11, 5-(1-Isopropyl-pyrrolidin-3-yl)-1H-indole-2-carboxylic acid (3,5-difluoro-phenyl)-amide]",321
9,"N#CCN1CC[C@@H](c2ccc3[nH]c(C(=O)Nc4cccc(F)c4)cc3c2)C1 [Example 109, (S)-5-(1-(Cyanomethyl)pyrrolidin-3-yl)-N-(3-fluorophenyl)-1H-indole-2-carboxamide]",472
10,"O=C(Nc1cc(F)cc(F)c1)c1cc2cc(C3CCNC3)ccc2[nH]1 (stereo not shown) [Example 7, 5-Pyrrolidin-3-yl-1H-indole-2-carboxylic acid (3,5-difluoro-phenyl)-amide]",253
11,C[C@@H](CN1CCCC1)c1ccc2[nH]c(C(=O)Nc3cccc(F)c3)cc2c1 [Example 119],1730
12,"O=C(Nc1cccc(F)c1)c1cc2cc(C3CC(=O)N(Cc4ccccc4)C3=O)ccc2[nH]1 (stereo not shown) [Example 17, 5-(1-Benzyl-2,5-dioxopyrrolidin-3-yl)-N-(3-fluorophenyl)-1H-indole-2-carboxamide]",8460
13,"CC(C)N1CCC(c2ccc3[nH]c(C(=O)Nc4ccc(C(C)(C)C)cc4)cc3c2)CC1 [Example 27, 5-(1-Isopropyl-piperidin-4-yl)-1H-indole-2-carboxylic acid (4-tert-butyl-phenyl)-amide]",8360
14,"O=C(Nc1cccc(F)c1)c1cc2cc(C3CCNC3)ccc2[nH]1 (stereo not shown) [Example 8, N-(3-Fluorophenyl)-5-(pyrrolidin-3-yl)-1H-indole-2-carboxamide]",627
15,"C=C(CCN1CCCCC1)c1ccc2[nH]c(C(=O)Nc3cc(F)cc(F)c3)cc2c1 [Example 97, N-(3,5-Difluorophenyl)-5-(4-(piperidin-1-yl)but-1-en-2-yl)-1H-indole-2-carboxamide]",1260
16,"CC(c1ccc2[nH]c(C(=O)Nc3cc(F)cc(F)c3)cc2c1)N1CCCC1 (stereo not shown) [Example 90, 5-(1-Pyrrolidin-1-yl-ethyl)-1H-indole-2-carboxylic acid (3,5-difluoro-phenyl)-amide]",877
17,"CC(C)N1CCN(c2ccc3[nH]c(C(=O)Nc4ccc(F)c(F)c4)cc3c2)CC1 [Example 63, 5-(4-Isopropyl-piperazin-1-yl)-1H-indole-2-carboxylic acid (3,4-difluoro-phenyl)-amide]",614
18,"CC(C)N1CCC(c2ccc3[nH]c(C(=O)Nc4ccc(F)cc4F)cc3c2)CC1 [Example 29, 5-(1-Isopropyl-piperidin-4-yl)-1H-indole-2-carboxylic acid (2,4-difluoro-phenyl)-amide]",12600
19,"O=C(Nc1cncc(F)c1)c1cc2cc(C3CCN(Cc4ccccc4)C3)ccc2[nH]1 (stereo not shown) [Example 74, 5-(1-Benzyl-pyrrolidin-3-yl)-1H-indole-2-carboxylic acid (5-fluoro-pyridin-3-yl)-amide]",1860
20,"C=C(c1ccc2[nH]c(C(=O)Nc3cc(F)cc(F)c3)cc2c1)C1CCN(Cc2ccccc2)C1 (stereo not shown) [Example 91, 5-(1-(1-Benzylpyrrolidin-3-yl)vinyl)-N-(3,5-difluorophenyl)-1H-indole-2-carboxamide]",1490
21,"CC(C)N1CCCC(c2ccc3[nH]c(C(=O)Nc4cc(F)cc(Cl)c4)cc3c2)C1 (stereo not shown) [Example 30, N-(3-Chloro-5-fluorophenyl)-5-(1-isopropylpiperidin-3-yl)-1H-indole-2-carboxamide]",742

# Same assay, conditions: human neuroglioma H4 cells overexpressing human APP, 22 hours incubation
row,SMILES,EC50 [nM]
1,CC(C)S(=O)(=O)N1CCC(c2ccc3[nH]c(C(=O)Nc4cc(F)cc(F)c4)cc3c2)C1 (stereo not shown) [Example 107],628
